Results taken from paper PMC10671849, “Synthesis and Evaluation of Marine-Inspired Compounds Result in Hybrids with Antitrypanosomal and Antileishmanial Activities” (Marine Drugs, 2023).
Like-named read-outs stand apart in the source and are kept apart here.

Experiments:
[1] = test system: T. brucei Lister 427 bloodstream forms; test: Anti-T. brucei activity, resazurin-based assay on bloodstream forms; type: cell-based, Trypanosoma brucei; settings: for IC50: Trypanosoma brucei, read-out: Anti-Parasitic Activity IC50 (µM) 95% CI, T. brucei
Description: T. brucei Lister 427 bloodstream forms were grown in a humidified incubator at 37 °C and 5% CO2 in complete HMI-9 medium supplemented with 10% heat-inactivated fetal bovine serum (FBS) and 100 UI/mL penicillin/streptomycin. Parasite maintenance was performed in T25 ventilated flasks by subpassage at a concentration of 1 × 10^4/mL every 2 days in T25 ventilated flasks. Luciferase-expressing L. infantum (MHOM/MA/67/ITMAP-263) axenic amastigotes expressing episomal luciferase were maintained in MAA20 [31] at 37 °C in a 5% CO2 environment with subculture every 7 days at 1 × 10^6/mL in 5-mL T25 ventilated flasks.
The compounds’ efficacy against bloodstream-stage trypomastigotes was evaluated using a resazurin-based assay. Parasites were added to 100 µL of serial dilutions of compounds in supplemented complete medium at a cell density of 5 × 10^3/mL. As a quality control, a dose–response curve for the antitrypanosomal pentamidine was included in all the assays. The final volume of the assay was 200 µL/well. Each condition was carried out in duplicate. Following 72 h of incubation at the specific conditions for parasites, 20 […] of a 0.5 mM resazurin solution was added, and the plates were incubated for a further 4 h under the same conditions. Fluorescence was measured at 544 nm and 590 nm excitation and emission wavelength, respectively, using a Synergy 2 Multi-Mode Reader (Biotek, Winooski, VT, USA). The results are shown as % of parasite growth inhibition compared to control (untreated parasites) and represent the average of at least three independent experiments. The effect was evaluated by the determination of the IC50 value (concentration required to inhibit growth in 50%) and calculated by non-linear regression curves using GraphPad Prism software, version 8.1.1 for Windows (GraphPad Software, San Diego, CA, USA).

[2] = Cytotoxicity MTT assay on PMA-differentiated THP-1 macrophages; type: cell-based; settings: human; PMA-differentiated THP-1 macrophages, 72 h, MTT; 100 to 12.5 µM tested; read-out: Cytotoxicity CC50 (µM) 95% CI, THP-1
Description: A human leukemia cell line, THP-1 (ATCC® TIB-202™), was cultured in RPMI-1640 medium supplemented with 10% heat-inactivated fetal bovine serum (FBS), 2 mM L-glutamine, 100 IU/mL penicillin/streptomycin, and 20 mM HEPES. The cell line was maintained in a humidified incubator at 37 °C and 5% CO2 by subculture every 3 days in 20 mL of media at a concentration of 2 × 10^5/mL in a T75 flask. All cell culture reagents were purchased from Lonza-Bioscience (Morrisville, NC, USA).
The cytotoxicity effect of compounds on THP-1-derived macrophages was assessed by colorimetric MTT assay (3-(4,5-dimethylthiazol-2-yl)-2,5-diphenyl tetrazolium bromide). Briefly, THP-1 cells were suspended in RPMI complete medium at a density of 1 × 10^6 cells/mL and 100 μL/well and were seeded in a 96-well plate and differentiated into macrophages by addition of 40 ng/mL of phorbol-myristate 13-acetate (PMA, Sigma, Saint Louis, MI, USA) for 24 h, followed by replacement with fresh medium for 24 more h. Subsequently, the cells were incubated with 100 μL of compounds ranging from 100 to 12.5 μM after dilution in the RPMI complete medium. Each condition was carried out in quadruplicate. After 72 h of incubation at 37 °C and 5% CO2, the medium was removed, and 200 μL of 0.5 mg/mL MTT solution diluted in RPMI was added. The plates were incubated for an additional 4 h. Then, 160 μL of media was removed, and the same volume of 2-propanol was added. Absorbance was read at 570 nm using a Synergy 2 Multi-Mode Reader (Biotek, Winooski, VT, USA). Cytotoxicity was evaluated by the determination of the CC50 value (drug concentration that reduced the percentage of viable cells by 50%) and calculated by non-linear regression analysis using GraphPad Prism software, version 8.1.1 for Windows (GraphPad Software, San Diego, CA, USA). The results represent the average of at least three independent experiments. For each compound, the selectivity index (SI) was calculated as the ratio between cytotoxicity in THP-1 (CC50, 72 h) and activity against parasites (IC50, 72 h).

[3] = test system: L. infantum promastigotes; test: Anti-Leishmania activity, resazurin-based assay; type: cell-based; settings: read-out: Anti-Parasitic Activity IC50 (µM) 95% CI, L. infantum Promastigotes
Description: Promastigotes from the L. infantum strain (MHOM/MA/67/ITMAP-263) were grown in 5-mL T25 flasks in Schneider’s insect medium supplemented with 10% heat-inactivated fetal bovine serum (FBS), 200 U/mL penicillin/streptomycin, 6 µg/mL Phenol Red, and 5 mM HEPES. The cultures were maintained in an incubator at 27 °C and diluted to 2 × 10^5/mL every 5 days. For the assays, the parasites used were equivalent to late/log with 2 or 3 days of culture.
The compounds’ efficacy against L. infantum promastigotes was evaluated using a resazurin-based assay. Parasites were added to 100 µL of serial dilutions of compounds in supplemented complete medium at a cell density of 5 × 10^5/mL. As a quality control, a dose–response curve to the antileishmanial drug miltefosine was included in all the assays. The final volume of the assay was 200 µL/well. Each condition was carried out in duplicate. Following 72 h of incubation at the specific conditions for parasites, 20 µL of a 0.5 mM resazurin solution was added, and the plates were incubated for a further 4 h under the same conditions. Fluorescence was measured at 544 nm and 590 nm excitation and emission wavelengths, respectively, using a Synergy 2 Multi-Mode Reader (Biotek, Winooski, VT, USA). Results are shown as % of parasite growth inhibition compared to control (untreated parasites) and represent the average of at least three independent experiments. The effect was evaluated by the determination of the IC50 value (concentration required to inhibit growth in 50%) and was calculated by non-linear regression curves using GraphPad Prism software, version 8.1.1 for Windows (GraphPad Software, San Diego, CA, USA).

[4] = bloodstream forms, 72 h incubation, resazurin
[5] = 72 h incubation, resazurin, highest concentration tested 40 µM, 95% CI in parentheses

SMILES	IC50 [1, 4] [µM]	Anti-Parasitic Activity IC50 (µM) 95% CI, T. brucei [1, 4]	CC50 at 72 h [2] [µM]	IC50 [3, 5] [µM]	IC50 ([1]; 72 h) [µM]	IC50 ([3]; 72 h) [µM]
C=CCc1cc(Cn2cc(C(=O)Nc3ccccc3C(N)=O)nn2)c(O)c(OC)c1 [9a, 1-(5-allyl-2-hydroxy-3-methoxybenzyl)-N-(2-carbamoylphenyl)-1H-1,2,3-triazole-4-carboxamide]	> 40	did not show detectable values of IC50	> 100	> 40	–	–
C=CCc1cc(Cn2cc(C(=O)Nc3ccc(OC)cc3C(N)=O)nn2)c(O)c(OC)c1 [9b, 1-(5-allyl-2-hydroxy-3-methoxybenzyl)-N-(2-carbamoyl-4-methoxyphenyl)-1H-1,2,3-triazole-4-carboxamide]	16.4	–	> 100	> 40	–	–
C=CCc1cc(Cn2cc(C(=O)Nc3ccc(F)cc3C(N)=O)nn2)c(O)c(OC)c1 [9c, 1-(5-allyl-2-hydroxy-3-methoxybenzyl)-N-(2-carbamoyl-4-fluorophenyl)-1H-1,2,3-triazole-4-carboxamide]	21	–	45.8	7.54	–	–
C=CCc1cc(Cn2cc(C(=O)Nc3ccc(Cl)cc3C(N)=O)nn2)c(O)c(OC)c1 [9d, 1-(5-allyl-2-hydroxy-3-methoxybenzyl)-N-(2-carbamoyl-4-chlorophenyl)-1H-1,2,3-triazole-4-carboxamide]	15.9	–	> 100	> 40	–	–
C=CCc1cc(Cn2cc(-c3nc4ccccc4c(=O)[nH]3)nn2)c(O)c(OC)c1 [10a, 2-(1-(5-allyl-2-hydroxy-3-methoxybenzyl)-1H-1,2,3-triazol-4-yl)quinazolin-4(3H)-one]	> 40	did not show detectable values of IC50	> 100	> 40	–	–
C=CCc1cc(Cn2cc(-c3nc4ccc(OC)cc4c(=O)[nH]3)nn2)c(O)c(OC)c1 [10b, 2-(1-(5-allyl-2-hydroxy-3-methoxybenzyl)-1H-1,2,3-triazol-4-yl)-6-methoxyquinazolin-4(3H)-one]	19.9	–	> 100	> 40	–	–
C=CCc1cc(Cn2cc(-c3nc4ccc(F)cc4c(=O)[nH]3)nn2)c(O)c(OC)c1 [10c, 2-(1-(5-allyl-2-hydroxy-3-methoxybenzyl)-1H-1,2,3-triazol-4-yl)-6-fluoroquinazolin-4(3H)-one]	11.2	–	> 100	> 40	–	–
C=CCc1ccc(O)c(OC)c1 [Eugenol, eugenol, reference compound]	–	–	> 100	–	> 40	> 40
C=CCc1ccc(OCc2cn(CC(=O)Nc3ccccc3C(=O)O)nn2)c(OC)c1 [compound 13, 2-(2-(4-((4-allyl-2-methoxyphenoxy)methyl)-1H-1,2,3-triazol-1-yl)acetamido) benzoic acid]	> 40	–	> 100	> 40	–	–
C=CCc1cc(Cn2cc(-c3nc4ccccc4c(=O)o3)nn2)c(O)c(OC)c1 [compound 14, 2-(1-(5-allyl-2-hydroxy-3-methoxybenzyl)-1H-1,2,3-triazol-4-yl)-4H-benzo[d][1,3]oxazin-4-one]	31.7	–	> 100	> 40	–	–
